Where two headings read alike, the source gives them in different places.
What was measured:
P-gp = target: T1, P-gp (Homo sapiens, UniProt P08183); assay: Permeability in LLC-PK1-P-gp cells; type: in vitro ADME; details: for Substrate: P-gp; for Papp A→B at 1 h, 4 µM / Papp B→A at 1 h, 4 µM / efflux ratio at 1 h, 4 µM: pig, LLC-PK1-P-gp; for efflux ratio at 1 h, 4 µM: read-out: ER
T1 construct: host or cells: LLC-PK1 (porcine kidney cells)
Method: LLC-PK1-P-gp or BCRP cells were seeded on collagen-coated 24-transwell membranes at a density of 2.5 × 10^5 cells/mL and maintained at 37 °C in a humidified atmosphere with 5% CO2/95% air for 5 days in Medium 199 supplemented with 10% […], 50 μg/mL of gentamycin, and 50 μg/mL of hygromycin. The culture medium was replaced every other day. On the day of the experiment, the growth medium was discarded, and the attached cells were washed with prewarmed HBSS (pH 7.4) and preincubated with HBSS for 20 min at 37 °C. […] Aliquots (0.1 mL) in the apical side were transferred to clean tubes every 15 min for 1 h and replaced with an equal volume of fresh HBSS.
LLC-PK1-P-gp or BCRP cells were seeded on collagen-coated 24-transwell membranes at a density of 2.5 × 10^5 cells/mL and cultured for 5 days. The growth medium was discarded on the day of the experiment, and the attached cells were washed with prewarmed HBSS (pH 7.4) and preincubated with HBSS for 20 min at 37 °C. […] Aliquots (0.1 mL) in the apical side were transferred to clean tubes every 15 min for 1 h and replaced with an equal volume of fresh HBSS. Aliquots (30 μL) of each sample were vortex-mixed with 90 μL of IS solution for 1 min, and then centrifugation was performed at 13,500 rpm at 4 °C for 5 min. Aliquots (5 μL) of the supernatant were injected into the LC-MS/MS for analysis.
The permeability (Papp) was calculated from the following equation [23, 24]: Papp(cm/s)=transport ratenmol/s/JP−1366 or M1 concentration (μM)×surface area of membrane (cm^2)

MATE1 = target: T2, MATE1 (Homo sapiens, UniProt Q96FL8); assay: Uptake into HEK293 cells expressing MATE1; details: for Uptake Rate / Fold-Change: 6 μM; for Fold-Change: vs HEK293-mock; for Substrate: MATE1
T2 sequence (Q96FL8 1-570): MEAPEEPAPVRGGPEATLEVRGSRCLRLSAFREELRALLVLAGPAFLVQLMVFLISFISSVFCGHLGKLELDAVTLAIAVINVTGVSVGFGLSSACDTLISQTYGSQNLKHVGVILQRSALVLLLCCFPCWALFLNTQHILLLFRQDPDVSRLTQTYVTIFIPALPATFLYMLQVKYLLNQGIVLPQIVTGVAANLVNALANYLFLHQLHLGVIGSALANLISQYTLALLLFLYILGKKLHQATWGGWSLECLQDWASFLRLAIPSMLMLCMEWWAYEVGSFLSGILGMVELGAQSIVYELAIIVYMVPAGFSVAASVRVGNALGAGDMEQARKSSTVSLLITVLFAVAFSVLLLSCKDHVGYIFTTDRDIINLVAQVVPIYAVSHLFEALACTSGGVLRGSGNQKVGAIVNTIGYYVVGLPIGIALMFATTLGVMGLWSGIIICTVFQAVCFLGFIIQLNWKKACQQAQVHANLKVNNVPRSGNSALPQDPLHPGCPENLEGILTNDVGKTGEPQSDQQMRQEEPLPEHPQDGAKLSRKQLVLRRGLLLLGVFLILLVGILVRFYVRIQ

OCT1 = target: T3, OCT1 (Homo sapiens, UniProt O15245); assay: Uptake into HEK293 cells expressing OCT1; details: for Uptake Rate / Fold-Change: 6 μM; for Fold-Change: vs HEK293-mock; for Substrate: OCT1
T3 sequence (O15245 1-554): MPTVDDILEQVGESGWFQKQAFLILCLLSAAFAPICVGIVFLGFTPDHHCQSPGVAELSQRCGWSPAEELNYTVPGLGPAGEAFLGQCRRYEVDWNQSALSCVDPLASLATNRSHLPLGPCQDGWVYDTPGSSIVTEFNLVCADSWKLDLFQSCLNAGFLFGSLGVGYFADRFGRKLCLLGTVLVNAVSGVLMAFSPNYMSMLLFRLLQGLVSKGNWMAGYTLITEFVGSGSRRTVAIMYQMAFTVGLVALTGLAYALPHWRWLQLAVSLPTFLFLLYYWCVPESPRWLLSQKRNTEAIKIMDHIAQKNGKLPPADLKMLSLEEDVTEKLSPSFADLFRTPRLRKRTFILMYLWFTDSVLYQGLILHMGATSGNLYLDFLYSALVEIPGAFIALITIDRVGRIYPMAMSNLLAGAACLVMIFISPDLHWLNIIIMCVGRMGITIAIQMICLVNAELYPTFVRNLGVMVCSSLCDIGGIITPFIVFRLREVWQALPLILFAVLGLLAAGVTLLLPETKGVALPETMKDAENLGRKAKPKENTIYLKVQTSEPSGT

HEK293-mock cells = assay: Uptake into HEK293-mock cells; details: 6 μM
OCT2 = target: T4, OCT2 (Homo sapiens, UniProt O15244); assay: Uptake into HEK293 cells expressing OCT2; details: for Uptake Rate / Fold-Change: 6 μM; for Fold-Change: vs HEK293-mock; for Substrate: OCT2
T4 sequence (O15244 1-555): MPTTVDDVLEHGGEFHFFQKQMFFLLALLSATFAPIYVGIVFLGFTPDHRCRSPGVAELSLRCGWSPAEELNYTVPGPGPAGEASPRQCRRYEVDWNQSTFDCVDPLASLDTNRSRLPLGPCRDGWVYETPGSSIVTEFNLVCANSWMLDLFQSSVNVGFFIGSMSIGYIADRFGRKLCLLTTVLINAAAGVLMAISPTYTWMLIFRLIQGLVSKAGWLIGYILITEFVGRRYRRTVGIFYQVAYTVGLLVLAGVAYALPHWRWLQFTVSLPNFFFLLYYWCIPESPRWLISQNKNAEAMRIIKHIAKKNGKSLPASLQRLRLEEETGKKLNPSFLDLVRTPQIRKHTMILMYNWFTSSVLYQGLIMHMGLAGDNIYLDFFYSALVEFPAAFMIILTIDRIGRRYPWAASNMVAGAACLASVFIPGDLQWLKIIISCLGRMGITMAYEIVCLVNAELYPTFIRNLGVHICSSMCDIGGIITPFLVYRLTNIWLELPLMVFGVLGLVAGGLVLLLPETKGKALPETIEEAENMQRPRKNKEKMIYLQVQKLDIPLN

[1] = pH 7.4, with CsA 20 μM, CsA 20 μM
[2] = HEK293-MATE1, cimetidine 100 μM

T1 sequence (P08183 whole entry): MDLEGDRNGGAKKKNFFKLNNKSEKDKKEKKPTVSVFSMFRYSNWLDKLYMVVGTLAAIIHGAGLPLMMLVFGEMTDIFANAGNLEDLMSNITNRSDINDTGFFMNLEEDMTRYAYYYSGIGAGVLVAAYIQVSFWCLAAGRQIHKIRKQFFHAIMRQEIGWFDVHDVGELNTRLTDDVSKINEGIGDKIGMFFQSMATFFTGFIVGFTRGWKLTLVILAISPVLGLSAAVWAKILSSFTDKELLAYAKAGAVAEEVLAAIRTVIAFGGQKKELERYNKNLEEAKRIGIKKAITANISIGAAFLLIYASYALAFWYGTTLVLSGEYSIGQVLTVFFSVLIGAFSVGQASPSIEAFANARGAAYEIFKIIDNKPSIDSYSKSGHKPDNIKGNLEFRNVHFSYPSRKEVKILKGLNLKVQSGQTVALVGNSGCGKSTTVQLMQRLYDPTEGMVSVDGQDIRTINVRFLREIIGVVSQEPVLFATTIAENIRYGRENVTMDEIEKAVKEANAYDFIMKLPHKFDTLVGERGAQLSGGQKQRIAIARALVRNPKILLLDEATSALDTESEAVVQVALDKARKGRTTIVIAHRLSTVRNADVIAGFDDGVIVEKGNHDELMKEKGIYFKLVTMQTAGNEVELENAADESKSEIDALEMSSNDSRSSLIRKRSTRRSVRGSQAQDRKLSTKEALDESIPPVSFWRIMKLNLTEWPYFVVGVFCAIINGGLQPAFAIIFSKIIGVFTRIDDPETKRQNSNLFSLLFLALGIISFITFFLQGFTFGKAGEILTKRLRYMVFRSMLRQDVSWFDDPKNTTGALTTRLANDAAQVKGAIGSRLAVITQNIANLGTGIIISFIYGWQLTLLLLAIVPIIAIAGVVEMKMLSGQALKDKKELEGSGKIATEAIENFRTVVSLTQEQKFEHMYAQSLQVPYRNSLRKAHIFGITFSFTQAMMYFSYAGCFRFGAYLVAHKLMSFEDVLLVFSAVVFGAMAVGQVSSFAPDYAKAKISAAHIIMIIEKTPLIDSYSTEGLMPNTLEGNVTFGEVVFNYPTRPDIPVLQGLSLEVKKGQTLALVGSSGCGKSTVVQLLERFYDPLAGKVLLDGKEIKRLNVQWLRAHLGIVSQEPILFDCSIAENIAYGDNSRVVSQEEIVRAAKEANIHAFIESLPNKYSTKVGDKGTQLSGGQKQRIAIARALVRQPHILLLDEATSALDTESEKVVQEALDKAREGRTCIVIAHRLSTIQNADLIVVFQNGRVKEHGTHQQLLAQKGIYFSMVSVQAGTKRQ

SMILES | Substrate (P-gp) | Papp A→B at 1 h, 4 µM (P-gp; [1]) | Papp B→A at 1 h, 4 µM (P-gp; [1]) | Papp A→B at 1 h, 4 µM (P-gp; pH 7.4, Control) | Papp B→A at 1 h, 4 µM (P-gp; pH 7.4, Control) | Uptake Rate (MATE1; [2]) | Uptake Rate (MATE1; HEK293-MATE1, control) | Substrate (MATE1) | Uptake Rate (OCT1; HEK293-OCT1, cimetidine 100 μM) | Uptake Rate (OCT1; HEK293-OCT1, control) | Substrate (OCT1) | Uptake Rate (HEK293-mock cells; cimetidine 100 μM) | Uptake Rate (HEK293-mock cells; control) | Uptake Rate (HEK293-mock cells; probenecid 20 μM) | Uptake Rate (HEK293-mock cells; rifampin 20 μM) | Uptake Rate (OCT2; HEK293-OCT2, cimetidine 100 μM) | Uptake Rate (OCT2; HEK293-OCT2, control) | Substrate (OCT2) | further results
Cc1cccc(CO)c1CNc1cc(C(=O)N2CCC2)cn2c(C)c(C)nc12 [M1, azetidin-1-yl(8-((2-(hydroxymethyl)-6-methyl-benzyl)amino)-2,3-dimethylimidazo[1,2-a]pyridin-6-yl)methanone] | Yes | 18.5 ± 0.96 ×10⁻⁶ cm/s | 62.8 ± 5.26 ×10⁻⁶ cm/s | 6.99 ± 0.6 ×10⁻⁶ cm/s | 99.3 ± 1.66 ×10⁻⁶ cm/s | 78.57 ± 5.38 pmol/min/10^5 Cells | 65.32 ± 4.13 pmol/min/10^5 Cells | No | 82.01 ± 3.72 pmol/min/10^5 Cells | 82.43 ± 3.59 pmol/min/10^5 Cells | No | 55.35 ± 2.24 pmol/min/10^5 Cells | 51.53 ± 3.16 pmol/min/10^5 Cells | 54.22 ± 1.90 pmol/min/10^5 Cells | 57.80 ± 0.89 pmol/min/10^5 Cells | 49.28 ± 4.50 pmol/min/10^5 Cells | 51.71 ± 1.36 pmol/min/10^5 Cells | No | efflux ratio at 1 h, 4 µM (P-gp; [1]): 3.4; efflux ratio at 1 h, 4 µM (P-gp; pH 7.4, Control): 14.2; Fold-Change (MATE1; [2]): 1.5; Fold-Change (MATE1; HEK293-MATE1, control): 1.3; Fold-Change (OCT1; HEK293-OCT1, cimetidine 100 μM): 1.6; Fold-Change (OCT1; HEK293-OCT1, control): 1.6; Fold-Change (HEK293-mock cells; cimetidine 100 μM): 1.1; Fold-Change (HEK293-mock cells; control): 1.0; Fold-Change (HEK293-mock cells; probenecid 20 μM): 1.1; Fold-Change (HEK293-mock cells; rifampin 20 μM): 1.1; Fold-Change (OCT2; HEK293-OCT2, cimetidine 100 μM): 1.0; Fold-Change (OCT2; HEK293-OCT2, control): 1.0
Cc1cccc(C)c1CNc1cc(C(=O)N2CCC2)cn2c(C)c(C)nc12 [JP-1366, 1-azetidinyl(8-(((2,6-dimethylphenyl)methyl)amino)-2,3-dimethylimidazo(1,2-a)pyridin-6-yl)methanone] | No | 20.7 ± 1.31 ×10⁻⁶ cm/s | 32 ± 0.94 ×10⁻⁶ cm/s | 20.3 ± 0.53 ×10⁻⁶ cm/s | 25.6 ± 1.71 ×10⁻⁶ cm/s | 78.57 ± 5.38 pmol/min/10^5 Cells | 65.32 ± 4.13 pmol/min/10^5 Cells | No | 82.01 ± 3.72 pmol/min/10^5 Cells | 82.43 ± 3.59 pmol/min/10^5 Cells | No | 55.35 ± 2.24 pmol/min/10^5 Cells | 51.53 ± 3.16 pmol/min/10^5 Cells | 54.22 ± 1.90 pmol/min/10^5 Cells | 57.80 ± 0.89 pmol/min/10^5 Cells | 49.28 ± 4.50 pmol/min/10^5 Cells | 51.71 ± 1.36 pmol/min/10^5 Cells | No | 
